Where two headings read alike, the source gives them in different places. Starred links: 1 amine or outer side, 2 acyl side, 3 side chain; linkers in the order of their positions; H or OH if unused. Positions of bridges follow the written chain, without caps; N, C: chain ends. Non-standard residues stand in square brackets, D forms with d. Residues, ends and D or L forms follow the SMILES beside them. *: point of attachment. Orn(4R-OH,5R-OH) = O=C([C@H](C[C@@H](O)[C@@H](O)N[*:3])N[*:1])[*:2]; hTyr(3S-OH,4S-OH) = N[C@H](C(=O)O)[C@H](O)[C@@H](O)c1ccc(O)cc1; Pro(3S-OH,4S-Me) = C[C@H]1CN[C@H](C(=O)O)[C@H]1O; Benzoyl(4-octyloxy) = CCCCCCCCOc1ccc(C(=O)*)cc1; X18 = CCCCCCCCCCCCOc1ccc(CC(=O)*)cc1; X16 = CCCCCCCCOc1ccc(C=CC(=O)*)cc1; Hyp = O=C(O)[C@@H]1C[C@@H](O)CN1; X15 = CCCCCCCCOc1cccc(CC(=O)*)c1; X19 = CCCCCCOc1ccc(C=CC(=O)*)cc1; X12 = CCCCCCOc1ccc(CCC(=O)*)cc1; X17 = CCCCOc1ccc(CCC(=O)*)cc1
Experiments:
[1] = tested on: Saccharomyces pastoranius X-52; assay: Agar plate disc diffusion test, zone of inhibition; format: cell-based, Saccharomyces pastorianus; settings: X52, 1 mg/ml suspension in methanol, 7mm disc, 24-48 hours at 25-37° C., read-out: Size of Zone of Inhibition
Procedure: (§1) Tables 10 and 11 give the results of the testing in vitro of the compounds of Examples 3 and 4 by agar-plate disc-diffusion methods. In Table 10 activity is measured by the size (diameter in mm) of the observed zone of inhibition of the microorganism produced by the test compound. In Table 11, activity is measured by the minimal inhibitory concentration (MIC) of the substance (μg/disc) required to inhibit growth of the test organism. Table 12 gives the results of the testing in vitro of the p-(n-octyloxy)benzoyl derivative of A30912A nucleus [Formula III, R^1 is p-(n-octyloxy)benzoyl] against five strains of Candida albicans by the agar dilution method. In Table 12 activity is measured by the minimal inhibitory concentration (MIC) of the substance (μg/ml) required to inhibit the test organism.
(§2) ^(a) Compounds were tested as suspension in methanol. The compounds
(§3) were tested at a concentration of 1 mg/ml. by dipping a 7mm disc into the
(§4) suspension and placing it on the agar surface. Incubation: 24-48 hours at
(§5) *Measurable zone of inhibition with regrowth of organism around disc.

Candida albicans A-26 [2] = assay: Agar plate disc diffusion test, zone of inhibition; format: cell-based; settings: 1 mg/ml suspension in methanol, 7mm disc; 24-48 hours at 25-37° C.
Procedure: as §1, §2, §3, §4, §5

Neurospora crassa 846 = assay: Agar plate disc diffusion test, zone of inhibition; format: cell-based; settings: Neurospora crassa, 846, read-out: Size of Zone of Inhibition
Procedure: as §1, §2, §3, §4, §5

Candida albicans A-26 [3] = assay: Therapeutic activity against Candida albicans A-26 infection in mice, ED50; format: in vivo; settings: Candida albicans, A26, sc, doses 0, 4 and 24 hours post infection, increase in survival time vs control, Reed-Muench, read-out: ED50
Procedure: (§6) The results of in vivo tests to evaluate the effectiveness of the compounds of Examples 3 and 4 against an infection caused by Candida albicans A-26 in mice are given in Table 13, where activity is measured by the ED50 value (the dose in mg/kg. required to cure 50% of the test animals). In a separate test, the results of which are also summarized in Table 13, activity is indicated by the lowest dose at which a significant anti-fungal effect is observed. In this test, groups of male albino mice (specific pathogen free), weighing 18 to 20 grams, are infected intravenously with Candida albicans A-26. The animals are X-irradiated 24 hours prior to infection at about 50 roentgens per minute for 8 minutes (400 total dose) to reduce immune responses to the infecting organism. At 0, 4, and 24 hours post infection each group of mice is given graded doses subcutaneously of the test compound as a suspension in 33% polyethylene glycol (PEG)-water. The day of death for each animal is recorded.
(§7) *Dosage Schedules: A. = 40, 20, 15 and 10 mg/kg; Dosages given 0, 4, and
(§8) 24 hours post injection as suspension of test compound in 30% PEGH2
(§9) O. Number of mice receiving test compounds at each dosage level: 6 mice
(§10) per group. Number of mice in control (untreated) group: 10 mice per group
**As measured by increase in survival time of treated animals versus
control, calculated by method of Reed v Mueuch, American J. Hygiene, 27,

Candida albicans A-26 [4] = assay: Therapeutic activity against Candida albicans A-26 infection in X-irradiated mice, lowest active dose; format: in vivo; settings: A26, light or radiation study, sc
Procedure: as §6, §7, §8, §9, §10

[5] = read-out: Lowest Active Dose, X-irradiated mice, subcutaneous at 0, 4 and 24 hours post infection, survival

Compound | zone of inhibition at 1000 µg/mL [1] [mm] | Size of Zone of Inhibition (Candida albicans A-26 [2]) [mm] | zone of inhibition at 1000 µg/mL (Neurospora crassa 846) [mm] | ED50 (Candida albicans A-26 [3]) [mg/kg] | minimal effective dose (Candida albicans A-26 [4]; X-irradiated mice, subcutaneous at 0, 4 and 24 hours post infection, survival, read-out: Lowest Active Dose) [mg/kg] | minimal effective dose (Candida albicans A-26 [4]; [5]) [mg/kg]
CCCCCCCCOc1ccc(C(=O)N[C@H]2C[C@@H](O)[C@@H](O)NC(=O)[C@@H]3[C@@H](O)[C@@H](C)CN3C(=O)[C@H]([C@@H](C)O)NC(=O)[C@H]([C@H](O)[C@@H](O)c3ccc(O)cc3)NC(=O)[C@@H]3C[C@@H](O)CN3C(=O)[C@H]([C@@H](C)O)NC2=O)cc1 [drawing 108] ({Benzoyl(4-octyloxy)}-[Orn(4R-OH,5R-OH)]T[Hyp][hTyr(3S-OH,4S-OH)]T[Pro(3S-OH,4S-Me)]; lactam 1-C) | 18 | 28 | 23 |  |  | 
CCCCOc1ccc(CCC(=O)N[C@H]2C[C@@H](O)[C@@H](O)NC(=O)[C@@H]3[C@@H](O)[C@@H](C)CN3C(=O)[C@H]([C@@H](C)O)NC(=O)[C@H]([C@H](O)[C@@H](O)c3ccc(O)cc3)NC(=O)[C@@H]3C[C@@H](O)CN3C(=O)[C@H]([C@@H](C)O)NC2=O)cc1 [drawing 170] (X17-[Orn(4R-OH,5R-OH)]T[Hyp][hTyr(3S-OH,4S-OH)]T[Pro(3S-OH,4S-Me)]; lactam 1-C) |  |  |  | > 40 | 40 | 
CCCCCCOc1ccc(CCC(=O)N[C@H]2C[C@@H](O)[C@@H](O)NC(=O)[C@@H]3[C@@H](O)[C@@H](C)CN3C(=O)[C@H]([C@@H](C)O)NC(=O)[C@H]([C@H](O)[C@@H](O)c3ccc(O)cc3)NC(=O)[C@@H]3C[C@@H](O)CN3C(=O)[C@H]([C@@H](C)O)NC2=O)cc1 [drawing 171] (X12-[Orn(4R-OH,5R-OH)]T[Hyp][hTyr(3S-OH,4S-OH)]T[Pro(3S-OH,4S-Me)]; lactam 1-C) |  |  |  | 9.2 |  | 5
CCCCCCOc1ccc(C=CC(=O)N[C@H]2C[C@@H](O)[C@@H](O)NC(=O)[C@@H]3[C@@H](O)[C@@H](C)CN3C(=O)[C@H]([C@@H](C)O)NC(=O)[C@H]([C@H](O)[C@@H](O)c3ccc(O)cc3)NC(=O)[C@@H]3C[C@@H](O)CN3C(=O)[C@H]([C@@H](C)O)NC2=O)cc1 [drawing 175] (X19-[Orn(4R-OH,5R-OH)]T[Hyp][hTyr(3S-OH,4S-OH)]T[Pro(3S-OH,4S-Me)]; lactam 1-C) |  |  |  | 21.8 |  | 5
CCCCCCCCOc1ccc(C=CC(=O)N[C@H]2C[C@@H](O)[C@@H](O)NC(=O)[C@@H]3[C@@H](O)[C@@H](C)CN3C(=O)[C@H]([C@@H](C)O)NC(=O)[C@H]([C@H](O)[C@@H](O)c3ccc(O)cc3)NC(=O)[C@@H]3C[C@@H](O)CN3C(=O)[C@H]([C@@H](C)O)NC2=O)cc1 [drawing 176] (X16-[Orn(4R-OH,5R-OH)]T[Hyp][hTyr(3S-OH,4S-OH)]T[Pro(3S-OH,4S-Me)]; lactam 1-C) |  |  |  | 3.75 |  | 5
CCCCCCCCOc1cccc(CC(=O)N[C@H]2C[C@@H](O)[C@@H](O)NC(=O)[C@@H]3[C@@H](O)[C@@H](C)CN3C(=O)[C@H]([C@@H](C)O)NC(=O)[C@H]([C@H](O)[C@@H](O)c3ccc(O)cc3)NC(=O)[C@@H]3C[C@@H](O)CN3C(=O)[C@H]([C@@H](C)O)NC2=O)c1 [drawing 177] (X15-[Orn(4R-OH,5R-OH)]T[Hyp][hTyr(3S-OH,4S-OH)]T[Pro(3S-OH,4S-Me)]; lactam 1-C) |  |  |  | > 40 |  | 10
CCCCCCCCCCCCOc1ccc(CC(=O)N[C@H]2C[C@@H](O)[C@@H](O)NC(=O)[C@@H]3[C@@H](O)[C@@H](C)CN3C(=O)[C@H]([C@@H](C)O)NC(=O)[C@H]([C@H](O)[C@@H](O)c3ccc(O)cc3)NC(=O)[C@@H]3C[C@@H](O)CN3C(=O)[C@H]([C@@H](C)O)NC2=O)cc1 [drawing 178] (X18-[Orn(4R-OH,5R-OH)]T[Hyp][hTyr(3S-OH,4S-OH)]T[Pro(3S-OH,4S-Me)]; lactam 1-C) |  |  |  | 8.4 |  | 10
